Consider nine compounds from article PMC5362750, “Discovery of Potent, Selective, and Orally Bioavailable Small-Molecule Modulators of the Mediator Complex-Associated Kinases CDK8 and CDK19” (Journal of Medicinal Chemistry, 2016).

≈ marks a conversion by molar mass, not a printed value. Where two headings read alike, the source gives them in different places.

Series [1] can be described thus: Caco-2 Papp determination. The following applies: human, Caco-2, pH 7.4.
The conditions of series [2]: human.
A short description of series [3]: Thermodynamic solubility determination. It is filed as physicochemical. Conditions: for solubility at 24 h: phosphate buffer, pH 7.4, TFA salt, pH 7.4, 37 °C, read-out: Solubility Therm.
The nature of series [4]: In vivo mouse PK. The following applies: female, NMRI, plasma; for Vd / clearance: iv, 0.2 mg/kg; for clearance: Cl, 0.2 mg/kg iv; for bioavailability: po, 0.5 mg/kg.
In series [5] the test system is WNT-dependent signaling, 7dF3 cells (HEK293). Description: 7dF3 luciferase reporter assay. Format: cell-based, human. In general terms: Reporter assays use an easily measured gene product as a stand-in for the process of interest.
Series [6] in a line: Mouse Clint determination. It is filed as in vitro ADME. The procedure: (§1) Mouse, Rat, and Human Clint Determination
(§2) Microsomes (final concentration 0.5 mg/mL), 50 mM phosphate buffer pH 7.4, and compound (final concentration 1 μM) were added to the assay plate and allowed to preincubate for 5 min at 37 °C. The reaction was initiated by the addition of NADPH (final concentration 1.5 mM), and the plate was shaken at 800 rpm at 37 °C. After 0, 5, 10, 20, and 30 min aliquots were taken and the reaction was stopped using cold acetonitrile. The samples were centrifuged at 4000 rpm for 30 min at 4 °C and analyzed by LC–MS/MS. Four test compounds were pooled for analysis. The in vitro intrinsic clearance was calculated from the rate of compound disappearance.

A short description of series [7]: Kinetic solubility determination. The following applies: phosphate buffer, pH 7.4, Solubility Kinetic, free base.
Series [8] in a line: Human Clint determination. Format: in vitro ADME. Conditions: pH 7.4; human microsomes. The method, then: as §1, §2
Series [9] is described as follows: Rat Clint determination. Format: in vitro ADME. The following applies: pH 7.4; rat microsomes.

As usually defined, the Papp A→B is how fast a substance crosses the layer from the apical side. The clearance is a measure of how efficiently the substance is removed, as volume per time. A word on the Vd: it is a proportionality between amount in the body and measured concentration, not a real space. Take `Cn1cc(-c2ccc(-c3cncc(Cl)c3N3CCC4(CCNC4=O)CC3)cc2)cn1` [Compound 6]: the Papp A→B at 2 h, 1 μM in series [1] worked out at 23.7 ×10⁻⁶ cm/s. Further, in series [2], the clearance is 14.7 mL/min/kg. Under “human”, the “clearance prediction, iviv from hepatocytes” value was 8.83 mL/min/kg and the “clearance prediction, simple allometry” value is 24.2 mL/min/kg. Where the note is “human prediction”, the F result is recorded as “∼70%”, the volume of distribution (Vd) entry was “∼0.85 L/kg” and the t1/2 result was “∼0.70 h”. Besides, the Cl result (human prediction, mean of all methods) is given as “∼0.88 L/h/kg”.

For orientation: solubility means how much of the substance goes into solution per volume. The term bioavailability denotes the share of a dose that reaches the circulation, judged against a reference dose that is usually intravenous. `O=C1NCCC12CCN(c1c(Cl)cncc1-c1ccc3c(c1)CS(=O)(=O)N3)CC2` [Compound 22] returned a Papp A→B at 2 h, 1 μM in series [1] of 4.9 ×10⁻⁶ cm/s. Also, the “improvement of thermodynamic aqueous solubility” value in series [3] (compared to 6) turned out to be 120 fold. In addition, the solubility at 24 h in series [3] stood at 759 µg/mL. Further, in series [4], the Vd came out at 1.19 L/kg, the clearance is 84 mL/min/kg and the bioavailability is 11%. For the same compound, in series [5] (7dF3, compared to 6), the “drop in cell-based potency” value is 23 fold.

Broadly, the efflux ratio is a quotient of directional permeabilities that is used to spot active efflux. `CC1=NNC(=O)C12CCN(c1c(Cl)cncc1-c1ccc3c(c1)CS(=O)(=O)N3C)CC2` [Compound 49]: in series [1], the Papp A→B at 2 h, 1 μM was found to be 40 ×10⁻⁶ cm/s and the efflux ratio at 2 h, 1 μM was determined as 4.9. Moreover, the “improvement in potency in the 7dF3 assay” value in series [5] (compared to 23) is listed as 13 fold.

`Cn1cc(-c2ccc(-c3cncc(C(F)(F)F)c3N3CCC4(CC3)CNC(=O)O4)cc2)cn1` [Compound 72, 8-(3-(4-(1-Methyl-1H-pyrazol-4-yl)phenyl)-5-(trifluoromethyl)pyridin-4-yl)-1-oxa-3,8-diazaspiro[4.5]decan-2-one 2,2,2-Trifluoroacetate] came in with a Papp A→B at 2 h, 1 μM in series [1] of 47.4 ×10⁻⁶ cm/s. Further, the solubility at 24 h in series [3] turned out to be 35 µg/mL. In series [4], this compound showed a Vd of 2.3 L/kg, a clearance of 30.3 mL/min/kg and a bioavailability of 48%.

For `Nc1ncc(-c2ccc3c(N)n[nH]c3c2)c(N2CCC3(CCNC3=O)CC2)c1Cl` [Compound 87], in series [6] (compared to 25), the “more stable in mouse Clint experiments” value is reported as “at least 5 fold”. Moreover, in [1], the Papp A→B at 2 h, 1 μM was 1.3 ×10⁻⁶ cm/s.

In [1], `Cn1cc(-c2ccc(-c3cnc(N)c(Cl)c3N3CCC4(CC3)CNC(=O)O4)cc2)cn1` [Compound 89] showed a Papp A→B at 2 h, 1 μM of 48.3 ×10⁻⁶ cm/s. Also, the solubility at 24 h in [3] is 5 µg/mL. In addition, in series [4], the distribution volume (Vd) was determined as 1.4 L/kg, the clearance is 22.5 mL/min/kg and the bioavailability was 35%.

In turn, `CN1c2ccc(-c3cnc(N)c(Cl)c3N3CCC4(CC3)CNC(=O)O4)cc2CS1(=O)=O` [Compound 90] displayed a Papp A→B at 2 h, 1 μM in series [1] of 10.3 ×10⁻⁶ cm/s. The solubility at 24 h in series [3] was determined as 2 µg/mL. In [4], this compound gave a Vd of 1.81 L/kg, a clearance of 36 mL/min/kg and a bioavailability of 9%.

The compound `Cn1cc(-c2ccc(-c3cnc(N)c(C(F)(F)F)c3N3CCC4(CC3)CNC(=O)O4)cc2)cn1` [Compound 95, 8-(2-Amino-5-(4-(1-methyl-1H-pyrazol-4-yl)phenyl)-3-(trifluoromethyl)pyridin-4-yl)-1-oxa-3,8-diazaspiro[4.5]decan-2-one 2,2,2-Trifluoroacetate] displayed a Papp A→B at 2 h, 1 μM in series [1] of 29.1 ×10⁻⁶ cm/s. Further, the solubility at 24 h in series [3] is 8 µg/mL. In addition, in [4], the Vd was 1.93 L/kg, the clearance is 25 mL/min/kg and the bioavailability came out at 42%.

For orientation: kinetic solubility means the concentration staying in solution when a stock, usually in DMSO, is diluted into the medium. For orientation: microsomal CLint means a measure of how fast metabolising enzymes remove a compound, apart from limits set by blood flow. Read a low microsomal CLint as greater metabolic stability. In turn, `CC(C)n1ncc2ccc(-c3cnc(N)c(Cl)c3N3CCC4(CCNC4=O)CC3)cc21` [Compound 111] registered a kinetic solubility at 120 min in series [7] of 126 µM (≈ 55.3 µg/mL). The microsomal CLint at 1 μM in series [8] turned out to be 202 µL/min/mg; in [6] (pH 7.4, mouse microsomes), 202 µL/min/mg; in [9], 139 µL/min/mg.
